From patent US10266535B2, “Inhibitor of FLT3 kinase and use thereof” (HEFEI INSTITUTES OF PHYSICAL SCIENCE, CHINESE ACADEMY OF …, priority 2015, dated 2019)
Like-named read-outs stand apart in the source and are kept apart here.

Experiments:
[1] = system: BaF3-FLT3-ITD-F691L (stably expressing FLT3/ITD F691L mutant activated kinase); assay: Cell proliferation, Cell Titer-Glo, BaF3-FLT3-ITD-F691L; format: cell-based; details: Mus musculus
Method: (§1) The above cell lines were constructed by our laboratory.
(§2) The number of viable cells was determined by quantification of ATP in living cells using the Cell Titer-Glo® (Promega, USA) chemiluminescence cell viability assay kit.

[2] = system: TPR-MET-BaF3 (stably expressing MET kinase); assay: Cell proliferation, Cell Titer-Glo, TPR-MET-BaF3; format: cell-based; details: Mus musculus; incubated for 72 hours
Method: as §1, §2

[3] = system: TEL-BaF3-BMX (stably expressing BMX kinase); assay: Cell proliferation, Cell Titer-Glo, TEL-BaF3-BMX; format: cell-based; details: Mus musculus; incubated for 72 hours
Outline: (§3)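 Proliferation of the engineered BaF3 lines was followed by measuring ATP in living cells with a CellTiter-Glo chemiluminescence viability kit, and the luminescent signal served as the count of viable cells.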

[4] = system: TEL-BaF3-FLT3-D835Y (stably expressing FLT3 D835Y mutant activated kinase); assay: Cell proliferation, Cell Titer-Glo, TEL-BaF3-FLT3-D835Y; format: cell-based; details: Mus musculus
Method: as §1, §2

[5] = system: TEL-JAK1-BaF3 (stably expressing JAK1 kinase); assay: Cell proliferation, Cell Titer-Glo, TEL-JAK1-BaF3; format: cell-based; details: Mus musculus; incubated for 72 hours
Method: as §1, §2

[6] = system: MV4-11 (expressing FLT3/ITD mutant gene); assay: Cell proliferation, Cell Titer-Glo, MV4-11; format: cell-based; details: Homo sapiens
Outline: (§4)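 Read-out: luminescence from ATP in live cells (CellTiter-Glo), taken as viable cell number. Cell lines were built in-house.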

[7] = system: TEL-BaF3-FLT3/ITD (stably expressing FLT3/ITD mutant activated kinase); assay: Cell proliferation, Cell Titer-Glo, TEL-BaF3-FLT3/ITD; format: cell-based, mouse; details: Mus musculus, 72 h, incubated for 72 hours; read-out: TEL-BaF3-FLT3/ITD IC50
Outline: as §3

[8] = system: MOLM-14 (expressing FLT3/ITD mutant gene and wild-type FLT3 gene); assay: Cell proliferation, Cell Titer-Glo, MOLM-14; format: cell-based; details: Homo sapiens
Method: as §1, §2

[9] = system: TEL-BaF3-BLK (stably expressing BLK kinase); assay: Cell proliferation, Cell Titer-Glo, TEL-BaF3-BLK; format: cell-based; details: Mus musculus; incubated for 72 hours
Outline: as §3

[10] = system: MOLM-13 (expressing FLT3/ITD mutant gene and wild-type FLT3 gene); assay: Cell proliferation, Cell Titer-Glo, MOLM-13; format: cell-based; details: Homo sapiens
Outline: as §4

[11] = system: TEL-cKIT-BaF3 (stably expressing cKIT kinase); assay: Cell proliferation, Cell Titer-Glo, TEL-cKIT-BaF3; format: cell-based; details: Mus musculus; incubated for 72 hours
Method: as §1, §2

[12] = system: BaF3-FLT3-ITD-D835Y (stably expressing FLT3/ITD D835Y mutant activated kinase); assay: Cell proliferation, Cell Titer-Glo, BaF3-FLT3-ITD-D835Y; format: cell-based; details: Mus musculus
Method: as §1, §2

[13] = system: pro-B cell BaF3; assay: Cell proliferation, Cell Titer-Glo, BaF3; format: cell-based; details: Mus musculus, incubated for 72 hours
Outline: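 Chemiluminescent ATP detection (CellTiter-Glo) gave the number of viable cells, used as the measure of proliferation in these laboratory-made BaF3 lines.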

[14] = system: TEL-BaF3-EGFR (stably expressing EGFR kinase); assay: Cell proliferation, Cell Titer-Glo, TEL-BaF3-EGFR; format: cell-based; details: Mus musculus; incubated for 72 hours
Method: as §1, §2

[15] = system: U937 (expressing wild-type FLT3 gene); assay: Cell proliferation, Cell Titer-Glo, U937; format: cell-based, human; details: Homo sapiens, U-937, 72 h
Outline: as §4

[16] = target: BTK protein kinase (Homo sapiens (Human), UniProt Q06187); assay: In vitro inhibition activity (enzymatic activity), ADP-Glo, BTK; format: biochemical; details: ATP 10 μM
Sequence of BTK protein kinase (Q06187 whole entry): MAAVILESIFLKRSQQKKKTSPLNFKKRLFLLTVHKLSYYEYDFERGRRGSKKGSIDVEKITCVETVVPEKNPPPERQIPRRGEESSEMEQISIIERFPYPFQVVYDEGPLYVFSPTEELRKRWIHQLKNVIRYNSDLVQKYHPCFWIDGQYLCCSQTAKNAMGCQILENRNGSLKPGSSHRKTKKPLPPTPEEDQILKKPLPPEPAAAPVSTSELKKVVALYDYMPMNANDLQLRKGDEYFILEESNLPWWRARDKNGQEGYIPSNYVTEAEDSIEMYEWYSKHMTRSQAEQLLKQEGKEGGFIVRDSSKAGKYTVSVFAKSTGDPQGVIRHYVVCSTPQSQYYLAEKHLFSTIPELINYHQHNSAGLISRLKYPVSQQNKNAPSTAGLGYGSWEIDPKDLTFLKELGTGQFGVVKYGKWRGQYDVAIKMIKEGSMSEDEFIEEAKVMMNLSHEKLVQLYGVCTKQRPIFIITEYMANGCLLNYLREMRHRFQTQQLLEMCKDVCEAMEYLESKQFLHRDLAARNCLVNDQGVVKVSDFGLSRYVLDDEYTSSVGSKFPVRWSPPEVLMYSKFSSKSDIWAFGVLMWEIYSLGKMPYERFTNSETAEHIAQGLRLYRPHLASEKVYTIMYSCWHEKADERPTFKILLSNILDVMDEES

[17] = system: OCI-AML-3 (expressing FLT3 A680V mutant gene); assay: Cell proliferation, Cell Titer-Glo, OCI-AML3; format: cell-based; details: Homo sapiens, incubated for 72 hours
Outline: as §4

[18] = incubated for 72 hours, read-out: BaF3-FLT3-ITD-F691L IC50
[19] = incubated for 72 hours, read-out: TEL-BaF3-FLT3-D835Y IC50
[20] = MV4-11, incubated for 72 hours, read-out: MV4-11 IC50
[21] = MOLM-14, incubated for 72 hours, read-out: MOLM-14 IC50
[22] = MOLM-13, incubated for 72 hours, read-out: MOLM-13 IC50
[23] = incubated for 72 hours, read-out: BaF3-FLT3-ITD-D835Y IC50
[24] = incubated for 72 hours, read-out: U937 IC50

SMILES: Nc1ncnc2c1c(-c1ccc(Oc3ccccc3)cc1)nn2[C@@H]1CCCN(C(=O)[C@@H](N)Cc2ccc(O)cc2)C1 [Compound 11, (S)-2-amino-1-((R)-3-(4-amino-(4-phenoxyphenyl)-1H-pyrazolo[3,4-d]pyrimidin-1-yl)piperidin-1-yl)-3-(4-hydroxyphenyl)propan-1-one]
- IC50 [1, 18]: 0.26 µM
- IC50 [2]: 1400 nM
- IC50 [3]: 440 nM
- IC50 [4, 19]: 0.02 µM
- IC50 [5]: 340 nM
- IC50 [6, 20]: 0.022 µM
- IC50 [7]: 48 nM
- IC50 [8, 21]: 0.046 µM
- IC50 [9]: 90 nM
- IC50 [10, 22]: 0.012 µM
- IC50 [11]: 830 nM
- IC50 [12, 23]: 0.28 µM
- IC50 [13]: 960 nM
- IC50 [14]: 2200 nM
- IC50 [15, 24]: 3.4 µM

SMILES: CC(O)C(=O)N1CCC[C@@H](n2nc(-c3ccc(Oc4ccccc4)cc3)c3c(N)ncnc32)C1 (stereo partly drawn) [Compound 23, 1-((R)-3-(4-amino-(4-phenoxyphenyl)-1H-pyrazolo[3,4-d]pyrimidin-1-yl)piperidin-1-yl)-2-hydroxylpropan-1-one]
- IC50 [2]: > 10000 nM
- IC50 [3]: 88 nM
- IC50 [4, 19]: 0.43 µM
- IC50 [5]: > 10000 nM
- IC50 [6, 20]: 0.32 µM
- IC50 [16]: 204 nM
- IC50 [7]: 91 nM
- IC50 [8, 21]: 0.63 µM
- IC50 [9]: 2800 nM
- IC50 [10, 22]: 0.29 µM
- IC50 [11]: 4800 nM
- IC50 [13]: > 10000 nM
- IC50 [14]: 6500 nM
- IC50 [15, 24]: 4.3 µM

SMILES: CC[C@@H](C)[C@@H](N)C(=O)N1CCC[C@@H](n2nc(-c3ccc(Oc4ccccc4)cc3)c3c(N)ncnc32)C1 [Compound 25, (2R,3R)-2-amino-1-((R)-3-(4-amino-(4-phenoxyphenyl)-1H-pyrazolo[3,4-d]pyrimidin-1-yl)piperidin-1-yl)-3-methylpentan-1-one]
- IC50 [2]: 1700 nM
- IC50 [3]: 510 nM
- IC50 [4, 19]: 0.18 µM
- IC50 [5]: 3300 nM
- IC50 [6, 20]: 0.12 µM
- IC50 [16]: 216 nM
- IC50 [7]: 88 nM
- IC50 [8, 21]: 0.19 µM
- IC50 [9]: 1100 nM
- IC50 [10, 22]: 0.12 µM
- IC50 [11]: 3100 nM
- IC50 [13]: 1700 nM
- IC50 [14]: 890 nM
- IC50 [15, 24]: 1.9 µM

SMILES: Nc1ncnc2c1c(-c1ccc(Oc3ccccc3)cc1)nn2[C@@H]1CCCN(C(=O)[C@H](N)Cc2ccccc2)C1 [Compound 26, (R)-2-amino-1-((R)-3-(4-amino-(4-phenoxyphenyl)-1H-pyrazolo[3,4-d]pyrimidin-1-yl)piperidin-1-yl)-3-phenylpropan-1-one]
- IC50 [2]: 2000 nM
- IC50 [3]: 1300 nM
- IC50 [4, 19]: 0.36 µM
- IC50 [5]: 2000 nM
- IC50 [6, 20]: 0.28 µM
- IC50 [16]: 98 nM
- IC50 [7]: 160 nM
- IC50 [8, 21]: 0.29 µM
- IC50 [9]: 2900 nM
- IC50 [10, 22]: 0.2 µM
- IC50 [11]: 3500 nM
- IC50 [13]: 1500 nM
- IC50 [14]: 1300 nM
- IC50 [15, 24]: 2.4 µM

SMILES: CS(=O)(=O)N1CCC[C@@H](n2nc(-c3ccc(Oc4ccccc4)cc3)c3c(N)ncnc32)C1 [Compound 30, (R)-1-(1-(methylsulfonyl)piperidin-3-yl)-3-(4-phenoxyphenyl)-1H-pyrazolo[3,4-d]pyrimidin-4-amine]
- IC50 [1, 18]: 5.3 µM
- IC50 [2]: 9270 nM
- IC50 [3]: 140 nM
- IC50 [4, 19]: 0.65 µM
- IC50 [6, 20]: 0.17 µM
- IC50 [16]: 1830 nM
- IC50 [7]: 48 nM
- IC50 [8, 21]: 0.26 µM
- IC50 [9]: 3500 nM
- IC50 [10, 22]: 0.13 µM
- IC50 [11]: 4350 nM
- IC50 [17]: > 10000 nM
- IC50 [12, 23]: 2.5 µM
- IC50 [13]: > 10000 nM
- IC50 [15, 24]: > 10 µM

SMILES: CN1CCC(C(=O)N2CCC[C@@H](n3nc(-c4ccc(Oc5ccccc5)cc4)c4c(N)ncnc43)C2)CC1 [Compound 33, (R)-(3-(4-amino-(4-phenoxyphenyl)-1H-pyrazolo[3,4-d]pyrimidin-1-yl)piperidin-1-yl)(1-methylpiperidin-4-yl)methanone]
- IC50 [1, 18]: 0.28 µM
- IC50 [2]: 1450 nM
- IC50 [3]: 70 nM
- IC50 [4, 19]: 0.14 µM
- IC50 [6, 20]: 0.16 µM
- IC50 [16]: 421 nM
- IC50 [7]: 77 nM
- IC50 [8, 21]: 0.22 µM
- IC50 [9]: 610 nM
- IC50 [10, 22]: 0.16 µM
- IC50 [11]: 2010 nM
- IC50 [17]: 5300 nM
- IC50 [12, 23]: 0.63 µM
- IC50 [13]: 5000 nM
- IC50 [15, 24]: > 10 µM

SMILES: NCC(=O)N1CCC[C@@H](n2nc(-c3ccc(Oc4ccccc4)cc3)c3c(N)ncnc32)C1 [Compound 43, (R)-2-amino-1-(3-(4-amino-(4-phenoxyphenyl)-1H-pyrazolo[3,4-d]pyrimidin-1-yl)piperidin-1-yl)ethanone]
- IC50 [1, 18]: 1.1 µM
- IC50 [2]: 2770 nM
- IC50 [3]: 22 nM
- IC50 [6, 20]: 0.022 µM
- IC50 [16]: 28 nM
- IC50 [7]: 7 nM
- IC50 [8, 21]: 0.028 µM
- IC50 [9]: 120 nM
- IC50 [10, 22]: 0.02 µM
- IC50 [17]: 5980 nM
- IC50 [12, 23]: 0.41 µM
- IC50 [13]: 3800 nM
- IC50 [15, 24]: 7.21 µM

SMILES: CS(=O)(=O)NC1CCC(n2nc(-c3ccc(Oc4ccccc4)cc3)c3c(N)ncnc32)CC1 (stereo not drawn) [Compound 78, N-(4-(4-amino-3-(4-phenoxyphenyl)-1H-pyrazolo[3,4-d]pyrimidin-1-yl)cyclohexyl)methanesulfonamide]
- IC50 ([1]; 72 h, read-out: BaF3-FLT3-ITD-F691L IC50 [μM]): 0.27 µM
- IC50 [3]: 38 nM
- IC50 ([4]; 72 h, read-out: TEL-BaF3-FLT3-D835Y IC50 [μM]): 0.0076 µM
- IC50 ([6]; MV4-11, 72 h, read-out: MV4-11 IC50 [μM]): 0.018 µM
- IC50 ([8]; MOLM-14, 72 h, read-out: MOLM-14 IC50 [μM]): 0.11 µM
- IC50 [9]: 4 nM
- IC50 ([10]; MOLM-13, 72 h, read-out: MOLM-13 IC50 [μM]): 0.019 µM
- IC50 [11]: 320 nM
- IC50 ([12]; 72 h, read-out: BaF3-FLT3-ITD-D835Y IC50 [μM]): 0.053 µM
- IC50 [13]: 6000 nM
- IC50 ([15]; read-out: U937 IC50 [μM], incubated for 72 hours): 3.6 µM
